Measurements taken from US20080058213A1, “Benzoxazole Compounds” (priority 2004, published 2008).

Columns and labels:
Type in all cases: in vivo
[1] = system: soybean; assay: Soil treatment test for upland field (Test Example 2): phytotoxicity to soybean; details: soil treatment before germination, examined after 3 weeks
[2] = system: common purslane (Portulaca oleracea); assay: Soil treatment test for upland field (Test Example 2): common purslane; details: soil treatment before germination, examined after 3 weeks
In short: (§1)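 Upland soil in 1/3,000 are pots was seeded and covered; compounds formulated as wettable powders, diluted with water to the prescribed active-ingredient dose, were sprayed uniformly onto the soil surface pre-emergence at 15 liters per are. After 3 weeks in a glasshouse at 25° C average, growth inhibition versus untreated control was graded 0–5.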

[3] = system: common lambsquaters (Chenopodium album); assay: Soil treatment test for upland field (Test Example 2): common lambsquaters; details: soil treatment before germination, examined after 3 weeks
In short: as §1

[4] = system: common purslane; assay: Foliage treatment test for upland field (Test Example 3): common purslane; details: foliage treatment at 1.0-2.0 leaf stage of southern crabgrass, examined after 3 weeks
In short: (§2)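 Weeds were sown in compost-soil pots in a 25° C glasshouse. Wettable-powder formulations, diluted in water to the prescribed active-ingredient dose, were sprayed at 15 liters per are when southern crabgrass reached the 1.0-2.0 leaf stage. After 3 weeks, growth inhibition versus untreated control was scored 0 (under 20%) to 5 (100%).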

[5] = system: corn; assay: Soil treatment test for upland field (Test Example 2): phytotoxicity to corn; details: soil treatment before germination, examined after 3 weeks
[6] = system: flat sedge (Cyperus serotinus); assay: Weed control test for paddy field (Test Example 1): flat sedge; details: paddy pots, treated at 1.0 leaf stage of barnyard grass, examined after 3 weeks
Excerpt: (§3) Paddy field soil was filled in 1/10,000 are pots, kneaded with adequate amounts of water and chemical fertilizer, seeded with barnyard grass (Echinochloa crusgalli), Monochoria (Monochoria vaginalis), Japanese bulrush (Scirpus juncoides) and flat sedge (Cyperus serotinus), and further transplanted with 2.0 leaf stage of rice plant. The pots were maintained under the water-filled condition to a depth of 3 cm.
(§4) Wettable powders containing the compounds (1) as identified in Table 1, which were formulated following Production Example 2, were diluted with adequate amount of water and applied to the pots dropwise with pippet at a prescribed dose of the active ingredients per are, at 1.0 leaf stage of the barnyard grass.
(§5) After placing the pots in a glasshouse which was controlled at an average temperature of 25° C. for 3 weeks, herbicidal effect was examined.
(§6) Evaluation of the herbicidal effect is shown in the following six grades, by comparing the condition of untreated control and growth inhibition (%): • 0: 0%-less than 20% • 1: 20%-less than 40% • 2: 40%-less than 60% • 3: 60%-less than 80% • 4: 80%-less than 100% • 5: 100%.

[7] = system: wheat; assay: Soil treatment test for upland field (Test Example 2): phytotoxicity to wheat; details: soil treatment before germination, examined after 3 weeks
[8] = system: southern crabgrass; assay: Foliage treatment test for upland field (Test Example 3): southern crabgrass; details: foliage treatment at 1.0-2.0 leaf stage of southern crabgrass, examined after 3 weeks
In short: as §2

[9] = system: Monochoria (Monochoria vaginalis); assay: Weed control test for paddy field (Test Example 1): Monochoria; details: paddy pots, treated at 1.0 leaf stage of barnyard grass, examined after 3 weeks
Excerpt: as §3, §4, §5, §6

[10] = system: rice plant; assay: Weed control test for paddy field (Test Example 1): phytotoxicity to rice plant; details: paddy pots, treated at 1.0 leaf stage of barnyard grass, examined after 3 weeks
Excerpt: as §3, §4, §5
Evaluation of phytotoxicity is shown in the following six grades, as compared with the condition of untreated control: • 0: normal growth • 1: little damaged • 2: low damaged • 3: medium damaged • 4: serious damaged • 5: complete killed.

[11] = system: slender amaranth (Amaranthus viridis); assay: Soil treatment test for upland field (Test Example 2): slender amaranth; details: soil treatment before germination, examined after 3 weeks
In short: as §1

[12] = system: soybean; assay: Foliage treatment test for upland field (Test Example 3): phytotoxicity to soybean; details: foliage treatment at 1.0-2.0 leaf stage of southern crabgrass, examined after 3 weeks
In short: (§7)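 Crops sown in compost-mixed soil pots, kept in a glasshouse at 25° C. average. Effect scored after 3 weeks versus untreated control on a 0–5 scale (0 normal growth, 5 complete kill).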

[13] = system: wheat; assay: Foliage treatment test for upland field (Test Example 3): phytotoxicity to wheat; details: foliage treatment at 1.0-2.0 leaf stage of southern crabgrass, examined after 3 weeks
In short: as §7

[14] = system: velvetleaf (Abutilon theophrasti); assay: Soil treatment test for upland field (Test Example 2): velvetleaf; details: soil treatment before germination, examined after 3 weeks
In short: as §1

[15] = system: slender amaranth; assay: Foliage treatment test for upland field (Test Example 3): slender amaranth; details: foliage treatment at 1.0-2.0 leaf stage of southern crabgrass, examined after 3 weeks
In short: as §2

[16] = system: Japanese bulrush (Scirpus juncoides); assay: Weed control test for paddy field (Test Example 1): Japanese bulrush; details: paddy pots, treated at 1.0 leaf stage of barnyard grass, examined after 3 weeks
Excerpt: as §3, §4, §5, §6

[17] = system: southern crabgrass (Digitaria ciliaris); assay: Soil treatment test for upland field (Test Example 2): southern crabgrass; details: soil treatment before germination, examined after 3 weeks
In short: as §1

[18] = system: corn; assay: Foliage treatment test for upland field (Test Example 3): phytotoxicity to corn; details: foliage treatment at 1.0-2.0 leaf stage of southern crabgrass, examined after 3 weeks
In short: as §7

[19] = system: velvetleaf; assay: Foliage treatment test for upland field (Test Example 3): velvetleaf; details: foliage treatment at 1.0-2.0 leaf stage of southern crabgrass, examined after 3 weeks
In short: as §2

[20] = system: common lambsquaters; assay: Foliage treatment test for upland field (Test Example 3): common lambsquaters; details: foliage treatment at 1.0-2.0 leaf stage of southern crabgrass, examined after 3 weeks
In short: as §2

[21] = system: barnyard grass (Echinochloa crusgalli); assay: Weed control test for paddy field (Test Example 1): barnyard grass; details: paddy pots, treated at 1.0 leaf stage of barnyard grass, examined after 3 weeks
Excerpt: as §3, §4, §5, §6

CCOCC(=Cc1cccc(C(F)(F)F)c1)c1nc2cc(C(F)(F)F)ccc2o1 [Compound 54]
2: Phytotoxicity soybean ([12]; dose 2.5 g ai/a) | Phytotoxicity soybean ([12]; dose 5 g ai/a) | Phytotoxicity corn ([18]; dose 5 g ai/a)
5 (100%): Herbicidal Effect common purslane ([2]; dose 2.5 g ai/a) | Herbicidal Effect common purslane ([2]; dose 5 g ai/a) | Herbicidal Effect common lambsquaters ([3]; dose 2.5 g ai/a) | Herbicidal Effect common lambsquaters ([3]; dose 5 g ai/a) | Herbicidal Effect common purslane ([4]; dose 2.5 g ai/a) | Herbicidal Effect common purslane ([4]; dose 5 g ai/a) | Herbicidal Effect southern crabgrass ([8]; dose 2.5 g ai/a) | Herbicidal Effect southern crabgrass ([8]; dose 5 g ai/a) | Herbicidal Effect Monochoria vaginalis ([9]; dose 2.5 g ai/a) | Herbicidal Effect Monochoria vaginalis ([9]; dose 5 g ai/a) | Herbicidal Effect slender amaranth ([11]; dose 2.5 g ai/a) | Herbicidal Effect slender amaranth ([11]; dose 5 g ai/a) | Herbicidal Effect velvetleaf ([14]; dose 2.5 g ai/a) | Herbicidal Effect velvetleaf ([14]; dose 5 g ai/a) | Herbicidal Effect slender amaranth ([15]; dose 2.5 g ai/a) | Herbicidal Effect slender amaranth ([15]; dose 5 g ai/a) | Herbicidal Effect Japanese bulrush ([16]; dose 5 g ai/a) | Herbicidal Effect southern crabgrass ([17]; dose 2.5 g ai/a) | Herbicidal Effect southern crabgrass ([17]; dose 5 g ai/a) | Herbicidal Effect velvetleaf ([19]; dose 2.5 g ai/a) | Herbicidal Effect velvetleaf ([19]; dose 5 g ai/a) | Herbicidal Effect Common lambsquatters ([20]; dose 2.5 g ai/a) | Herbicidal Effect Common lambsquatters ([20]; dose 5 g ai/a) | Herbicidal Effect Barnyard grass ([21]; dose 2.5 g ai/a) | Herbicidal Effect Barnyard grass ([21]; dose 5 g ai/a)
1: Phytotoxicity soybean ([1]; dose 5 g ai/a) | Phytotoxicity corn ([5]; dose 2.5 g ai/a) | Phytotoxicity corn ([5]; dose 5 g ai/a) | Phytotoxicity wheat ([7]; dose 2.5 g ai/a) | Phytotoxicity wheat ([7]; dose 5 g ai/a) | Phytotoxicity Rice plant ([10]; dose 2.5 g ai/a) | Phytotoxicity Rice plant ([10]; dose 5 g ai/a) | Phytotoxicity wheat ([13]; dose 2.5 g ai/a) | Phytotoxicity wheat ([13]; dose 5 g ai/a) | Phytotoxicity corn ([18]; dose 2.5 g ai/a)
4 (80%-less than 100%): Herbicidal Effect Flat sedge ([6]; dose 5 g ai/a) | Herbicidal Effect Japanese bulrush ([16]; dose 2.5 g ai/a)
0: Phytotoxicity soybean ([1]; dose 2.5 g ai/a)
3 (60%-less than 80%): Herbicidal Effect Flat sedge ([6]; dose 2.5 g ai/a)

CCOC/C(=C\c1cccc(C(F)(F)F)c1)c1nc2cc(Cl)ccc2o1 [Compound 11]
1: Phytotoxicity corn ([5]; dose 2.5 g ai/a) | Phytotoxicity corn ([5]; dose 5 g ai/a) | Phytotoxicity Rice plant ([10]; dose 2.5 g ai/a) | Phytotoxicity Rice plant ([10]; dose 5 g ai/a) | Phytotoxicity soybean ([12]; dose 5 g ai/a) | Phytotoxicity wheat ([13]; dose 2.5 g ai/a) | Phytotoxicity wheat ([13]; dose 5 g ai/a) | Phytotoxicity corn ([18]; dose 5 g ai/a)
0: Phytotoxicity soybean ([1]; dose 2.5 g ai/a) | Phytotoxicity soybean ([1]; dose 5 g ai/a) | Phytotoxicity wheat ([7]; dose 2.5 g ai/a) | Phytotoxicity wheat ([7]; dose 5 g ai/a)
3 (60%-less than 80%): Herbicidal Effect Flat sedge ([6]; dose 2.5 g ai/a) | Herbicidal Effect velvetleaf ([14]; dose 2.5 g ai/a)
5 (100%): Herbicidal Effect common purslane ([2]; dose 2.5 g ai/a) | Herbicidal Effect common purslane ([2]; dose 5 g ai/a) | Herbicidal Effect common lambsquaters ([3]; dose 2.5 g ai/a) | Herbicidal Effect common lambsquaters ([3]; dose 5 g ai/a) | Herbicidal Effect common purslane ([4]; dose 2.5 g ai/a) | Herbicidal Effect common purslane ([4]; dose 5 g ai/a) | Herbicidal Effect Flat sedge ([6]; dose 5 g ai/a) | Herbicidal Effect southern crabgrass ([8]; dose 2.5 g ai/a) | Herbicidal Effect southern crabgrass ([8]; dose 5 g ai/a) | Herbicidal Effect Monochoria vaginalis ([9]; dose 2.5 g ai/a) | Herbicidal Effect Monochoria vaginalis ([9]; dose 5 g ai/a) | Herbicidal Effect slender amaranth ([11]; dose 2.5 g ai/a) | Herbicidal Effect slender amaranth ([11]; dose 5 g ai/a) | Herbicidal Effect slender amaranth ([15]; dose 2.5 g ai/a) | Herbicidal Effect slender amaranth ([15]; dose 5 g ai/a) | Herbicidal Effect Japanese bulrush ([16]; dose 5 g ai/a) | Herbicidal Effect southern crabgrass ([17]; dose 2.5 g ai/a) | Herbicidal Effect southern crabgrass ([17]; dose 5 g ai/a) | Herbicidal Effect velvetleaf ([19]; dose 2.5 g ai/a) | Herbicidal Effect velvetleaf ([19]; dose 5 g ai/a) | Herbicidal Effect Common lambsquatters ([20]; dose 2.5 g ai/a) | Herbicidal Effect Common lambsquatters ([20]; dose 5 g ai/a) | Herbicidal Effect Barnyard grass ([21]; dose 2.5 g ai/a) | Herbicidal Effect Barnyard grass ([21]; dose 5 g ai/a)
2: Phytotoxicity soybean ([12]; dose 2.5 g ai/a) | Phytotoxicity corn ([18]; dose 2.5 g ai/a)
4 (80%-less than 100%): Herbicidal Effect velvetleaf ([14]; dose 5 g ai/a) | Herbicidal Effect Japanese bulrush ([16]; dose 2.5 g ai/a)

COCC(=Cc1ccc(Cl)c(C(F)(F)F)c1)c1nc2cc(Cl)ccc2o1 [Compound 9]
0: Phytotoxicity soybean ([1]; dose 2.5 g ai/a) | Phytotoxicity soybean ([1]; dose 5 g ai/a) | Phytotoxicity wheat ([7]; dose 2.5 g ai/a) | Phytotoxicity Rice plant ([10]; dose 2.5 g ai/a) | Phytotoxicity Rice plant ([10]; dose 5 g ai/a) | Phytotoxicity soybean ([12]; dose 2.5 g ai/a)
3 (60%-less than 80%): Herbicidal Effect Flat sedge ([6]; dose 5 g ai/a) | Herbicidal Effect Japanese bulrush ([16]; dose 2.5 g ai/a)
1: Phytotoxicity corn ([5]; dose 2.5 g ai/a) | Phytotoxicity corn ([5]; dose 5 g ai/a) | Phytotoxicity wheat ([7]; dose 5 g ai/a) | Phytotoxicity soybean ([12]; dose 5 g ai/a) | Phytotoxicity wheat ([13]; dose 2.5 g ai/a) | Phytotoxicity wheat ([13]; dose 5 g ai/a) | Phytotoxicity corn ([18]; dose 2.5 g ai/a) | Phytotoxicity corn ([18]; dose 5 g ai/a)
5 (100%): Herbicidal Effect common purslane ([2]; dose 2.5 g ai/a) | Herbicidal Effect common purslane ([2]; dose 5 g ai/a) | Herbicidal Effect common lambsquaters ([3]; dose 2.5 g ai/a) | Herbicidal Effect common lambsquaters ([3]; dose 5 g ai/a) | Herbicidal Effect common purslane ([4]; dose 2.5 g ai/a) | Herbicidal Effect common purslane ([4]; dose 5 g ai/a) | Herbicidal Effect southern crabgrass ([8]; dose 2.5 g ai/a) | Herbicidal Effect southern crabgrass ([8]; dose 5 g ai/a) | Herbicidal Effect Monochoria vaginalis ([9]; dose 2.5 g ai/a) | Herbicidal Effect Monochoria vaginalis ([9]; dose 5 g ai/a) | Herbicidal Effect slender amaranth ([11]; dose 2.5 g ai/a) | Herbicidal Effect slender amaranth ([11]; dose 5 g ai/a) | Herbicidal Effect velvetleaf ([14]; dose 5 g ai/a) | Herbicidal Effect slender amaranth ([15]; dose 2.5 g ai/a) | Herbicidal Effect slender amaranth ([15]; dose 5 g ai/a) | Herbicidal Effect southern crabgrass ([17]; dose 2.5 g ai/a) | Herbicidal Effect southern crabgrass ([17]; dose 5 g ai/a) | Herbicidal Effect velvetleaf ([19]; dose 5 g ai/a) | Herbicidal Effect Common lambsquatters ([20]; dose 2.5 g ai/a) | Herbicidal Effect Common lambsquatters ([20]; dose 5 g ai/a) | Herbicidal Effect Barnyard grass ([21]; dose 5 g ai/a)
4 (80%-less than 100%): Herbicidal Effect velvetleaf ([14]; dose 2.5 g ai/a) | Herbicidal Effect Japanese bulrush ([16]; dose 5 g ai/a) | Herbicidal Effect velvetleaf ([19]; dose 2.5 g ai/a) | Herbicidal Effect Barnyard grass ([21]; dose 2.5 g ai/a)
2 (40%-less than 60%): Herbicidal Effect Flat sedge ([6]; dose 2.5 g ai/a)
